One test deals with GM1 production. The test can be described thus: cells. In kind it is cell-based.
Test [1] deals with glucosylceramide synthase (GCS) (Homo sapiens (Human), UniProt Q16739). The test can be described thus: Evaluation of inhibitory activities against GCS (enzyme reaction with A549 cell lysate, NBD C6-ceramide, HPLC fluorescence). In kind it is biochemical. To be noted: GCS activity in A549 cell lysate, 37° C. for 90 minutes. As to the method: Ibiglustat, known as a GCS inhibitor, was used as a control.
Chain of glucosylceramide synthase (GCS) (Q16739 whole entry, looked up): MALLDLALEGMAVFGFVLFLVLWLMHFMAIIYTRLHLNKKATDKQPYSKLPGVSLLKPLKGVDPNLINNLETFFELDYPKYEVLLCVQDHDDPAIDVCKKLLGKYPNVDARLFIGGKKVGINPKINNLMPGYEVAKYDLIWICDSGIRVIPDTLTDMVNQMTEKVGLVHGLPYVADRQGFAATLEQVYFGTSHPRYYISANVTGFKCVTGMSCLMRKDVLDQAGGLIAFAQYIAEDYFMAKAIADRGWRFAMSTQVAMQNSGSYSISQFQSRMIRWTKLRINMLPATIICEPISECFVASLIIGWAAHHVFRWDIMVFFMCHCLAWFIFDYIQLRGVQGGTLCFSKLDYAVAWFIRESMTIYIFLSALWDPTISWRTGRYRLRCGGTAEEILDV
After the cells attached to the culture dish were washed with phosphate buffered saline (PBS), the cells were scraped off with a cell scraper and then centrifuged (4000 rpm, 3 min, 4° C.) to collect the cells in a 50 ml tube. The cell pellets were suspended in a lysis buffer (50 mM HEPES, pH 7.3, containing 1× the protease/phosphatase inhibitor cocktail), lysed by sonication, and then the lysate was centrifuged (13000 rpm, 10 min, 4° C.). The obtained supernatant was used for the quantitative analysis of proteins. The amount of proteins was measured using the BCA protein assay kit, using bovine serum albumin as a standard.
Enzymatic reactions were initiated by sequentially adding the following reaction materials to a 96 deep-well plate. Thereafter, the enzymatic reactions were performed at 37° C. for 90 minutes.
The enzymatic reactions were stopped by adding 100 μl of chloroform/methanol (2:1, v/v). After vortexing for 15 seconds, each mixture was centrifuged (4000 rpm, 10 min, 18° C.). The lower layer (50 μl) was transferred to a new 96 deep-well plate and dried with a reduced concentrator.
Data analysis was performed by the following equations. % Area (Sample)=Area (GlcCer)/[Area (Cer)+Area (GlcCer)]×100 % GCS activity=[Area(Sample)−Area(ibiglustat)]/[Area(DMSO)−Area(ibiglustat)]×100

Where two headings read alike, the source gives them in different places.

Take `COc1ccc(-c2ccc3c(c2)C(NC(=O)O[C@@H]2CN4CCC2CC4)CCC3)cc1` (stereo partly drawn) [Example 80, (S)-quinuclidin-3-yl (7-(4-methoxyphenyl)-1,2,3,4-tetrahydronaphthalen-1-yl)carbamate]: the IC50 in the test with GM1 production (Homo sapiens, Jurkat, 72 h) amounted to 225 nM; in test [1] it was 15.4 nM.
The like results for `COCCOc1ccccc1-c1ccc2c(c1)CCCC2NC(=O)O[C@@H]1CN2CCC1CC2` (stereo partly drawn) [Example 29, (S)-quinuclidin-3-yl (6-(2-(2-methoxyethoxy)phenyl)-1,2,3,4-tetrahydronaphthalen-1-yl)carbamate] were, in that order, 156 nM and 8.52 nM.
On the same counts, the results for `CC(C)Oc1cccc(-c2ccc3c(c2)CCC2(CC2)C3NC(=O)O[C@@H]2CN3CCC2CC3)c1` (stereo partly drawn) [Example 208, (S)-quinuclidin-3-yl (6′-(3-isopropoxyphenyl)-3′,4′-dihydro-1′H-spiro[cyclopropane-1,2′-naphthalen]-1′-yl)carbamate] are 47.7 nM and 21.2 nM.
Take `CC1(C)CCc2cc(-c3ccccc3C(F)(F)F)ccc2C1NC(=O)O[C@@H]1CN2CCC1CC2` (stereo partly drawn) [Example 96, (S)-quinuclidin-3-yl (2,2-dimethyl-6-(2-(trifluoromethyl)phenyl)-1,2,3,4-tetrahydronaphthalen-1-yl)carbamate]: the 50% inhibitory concentration (IC50) with GM1 production (Homo sapiens, Jurkat, 72 h) is 3.29 nM; in test [1], 1.79 nM.
On to `COc1cc(-c2ccc3c(c2)CCC2(CC2)C3NC(=O)O[C@@H]2CN3CCC2CC3)ccc1Cl` (stereo partly drawn) [Example 201, (S)-quinuclidin-3-yl (6′-(4-chloro-3-methoxyphenyl)-3′,4′-dihydro-1′H-spiro[cyclopropane-1,2′-naphthalen]-1′-yl)carbamate], for which the IC50 with GM1 production (Homo sapiens, Jurkat, 72 h) was found to be 111 nM; in test [1] it was 33.5 nM.
The like results for `CC1(C)CCc2cc(-c3ccnc(F)c3)ccc2C1NC(=O)O[C@@H]1CN2CCC1CC2` (stereo partly drawn) [Example 118, (S)-quinuclidin-3-yl (6-(2-fluoropyridin-4-yl)-2,2-dimethyl-1,2,3,4-tetrahydronaphthalen-1-yl)carbamate] were, in that order, 12.4 nM and 17 nM.
Turning to `COc1ccc(-c2ccc3c(c2)CCC2(CC2)C3NC(=O)O[C@@H]2CN3CCC2CC3)cc1F` (stereo partly drawn) [Example 202, (S)-quinuclidin-3-yl (6′-(3-fluoro-4-methoxyphenyl)-3′,4′-dihydro-1′H-spiro[cyclopropane-1,2′-naphthalen]-1′-yl)carbamate], the IC50 came to 24.4 nM with GM1 production (Homo sapiens, Jurkat, 72 h) and 1.16 nM in test [1].
In the case of `O=C(NC1CCCc2cc(-c3ccc(Cl)cc3)ccc21)O[C@@H]1CN2CCC1CC2` (stereo partly drawn) [Example 2, (S)-quinuclidin-3-yl (6-(4-chlorophenyl)-1,2,3,4-tetrahydronaphthalen-1-yl)carbamate], the IC50 worked out at 54.5 nM with GM1 production (Homo sapiens, Jurkat, 72 h) and 3.04 nM in test [1].
`COc1cccc(OC)c1-c1ccc2c(c1)CCC(C)(C)C2NC(=O)O[C@@H]1CN2CCC1CC2` (stereo partly drawn) [Example 136, (S)-quinuclidin-3-yl (6-(2,6-dimethoxyphenyl)-2,2-dimethyl-1,2,3,4-tetrahydronaphthalen-1-yl)carbamate]: the IC50 in the test on GM1 production (Homo sapiens, Jurkat, 72 h) amounted to 21.2 nM; in test [1] it was 9.22 nM.
Turning to `CCCOc1ccc(-c2ccc3c(c2)CCC(C)(C)C3NC(=O)O[C@@H]2CN3CCC2CC3)cc1Cl` (stereo partly drawn) [Example 141, (S)-quinuclidin-3-yl (6-(3-chloro-4-propoxyphenyl)-2,2-dimethyl-1,2,3,4-tetrahydronaphthalen-1-yl)carbamate], the concentration for half-maximal inhibition (IC50) stood at 1.1 nM in the test with GM1 production (Homo sapiens, Jurkat, 72 h) and 1.51 nM in test [1].
Regarding `CC(C)(C)Oc1cc(-c2cc3c(cc2F)C(NC(=O)O[C@@H]2CN4CCC2CC4)C(C)(C)CC3)ccn1` (some centres unmarked) [Example 231], the 50% inhibitory concentration (IC50) stood at 3.8 nM in the test with GM1 production (read-out: IC50) and 0.86 nM in test [1].
In the case of `O=C(NC1CCCc2ccc(-c3ccncc3)cc21)O[C@@H]1CN2CCC1CC2` (stereo partly drawn) [Example 72, (S)-quinuclidin-3-yl (7-(pyridin-4-yl)-1,2,3,4-tetrahydronaphthalen-1-yl)carbamate], the IC50 amounted to 116 nM in the test on GM1 production (Homo sapiens, Jurkat, 72 h) and 66 nM in test [1].
`O=C(NC1CCCc2ccc(-c3cccc(F)c3)cc21)O[C@@H]1CN2CCC1CC2` (some centres unmarked) [Example 58]: the results for the 50% inhibitory concentration (IC50) (in the test on GM1 production (read-out: IC50); in test [1]) were 73.5 nM and 10.8 nM, respectively.
As for `O=C(NC1c2cc(-c3ccc(OC(F)(F)F)cc3)ccc2CCC12CC2)O[C@@H]1CN2CCC1CC2` (stereo partly drawn) [Example 174, (S)-quinuclidin-3-yl (7′-(4-(trifluoromethoxy)phenyl)-3′,4′-dihydro-1′H-spiro[cyclopropane-1,2′-naphthalen]-1′-yl)carbamate], the concentration for half-maximal inhibition (IC50) is 39.3 nM in the test on GM1 production (Homo sapiens, Jurkat, 72 h) and 4.35 nM in test [1].
The like results for `O=C(NC1CCCc2cc(-c3cc(Cl)cc(Cl)c3)ccc21)O[C@@H]1CN2CCC1CC2` (stereo partly drawn) [Example 24, (S)-quinuclidin-3-yl (6-(3,5-dichlorophenyl)-1,2,3,4-tetrahydronaphthalen-1-yl)carbamate] were, in that order, 23.1 nM and 9.1 nM.
The like results for `O=C(NC1c2ccc(-c3ccc(Cl)cc3)cc2CCC12CC2)O[C@@H]1CN2CCC1CC2` (stereo partly drawn) [Example 187, (S)-quinuclidin-3-yl (6′-(4-chlorophenyl)-3′,4′-dihydro-1′H-spiro[cyclopropane-1,2′-naphthalen]-1′-yl)carbamate] were, in that order, 35.5 nM and 13.9 nM.
On the same counts, the results for `COc1ccc(-c2ccc3c(c2)CCCC3NC(=O)O[C@@H]2CN3CCC2CC3)cc1` (stereo partly drawn) [Example 46, (S)-quinuclidin-3-yl (6-(4-methoxyphenyl)-1,2,3,4-tetrahydronaphthalen-1-yl)carbamate] are 216 nM and 13 nM.
Regarding `CCCc1ccc(-c2ccc3c(c2)CCC2(CC2)C3NC(=O)O[C@@H]2CN3CCC2CC3)cc1` (stereo partly drawn) [Example 222, (S)-quinuclidin-3-yl (6′-(4-propylphenyl)-3′,4′-dihydro-1′H-spiro[cyclopropane-1,2′-naphthalen]-1′-yl)carbamate], the 50% inhibitory concentration (IC50) in the test on GM1 production (Homo sapiens, Jurkat, 72 h) was found to be 9.3 nM; in test [1], 0.75 nM.
For the molecule `COc1cc(-c2ccc3c(c2)CCC(C)(C)C3NC(=O)O[C@@H]2CN3CCC2CC3)ccn1` (stereo partly drawn) [Example 116, (S)-quinuclidin-3-yl (6-(2-methoxypyridin-4-yl)-2,2-dimethyl-1,2,3,4-tetrahydronaphthalen-1-yl)carbamate], the IC50 in the test on GM1 production (Homo sapiens, Jurkat, 72 h) was determined as 7.76 nM; in test [1], 8.62 nM.
On to `COc1ccc(-c2cc3c(cc2F)C(NC(=O)O[C@@H]2CN4CCC2CC4)C(C)(C)CC3)cc1F` (stereo partly drawn) [Example 227, (S)-quinuclidin-3-yl (7-fluoro-6-(3-fluoro-4-methoxyphenyll)-2,2-dimethyl-1,2,3,4-tetrahydronaphthalen-1-yl)carbamate], for which the figures for the IC50 (in the test on GM1 production (read-out: IC50); in test [1]) were 12.8 nM and 0.5 nM, respectively.
Consider `O=C(NC1CCCc2cc(-c3ccccc3C(F)(F)F)ccc21)O[C@@H]1CN2CCC1CC2` (stereo partly drawn) [Example 11, (S)-quinuclidin-3-yl (6-(2-(trifluoromethyl)phenyl)-1,2,3,4-tetrahydronaphthalen-1-yl)carbamate], for which the IC50 in the test on GM1 production (Homo sapiens, Jurkat, 72 h) was determined as 38.5 nM; in test [1], 8.18 nM.
The like results for `CC1(C)CCc2cc(-c3ccccc3F)ccc2C1NC(=O)O[C@@H]1CN2CCC1CC2` (stereo partly drawn) [Example 94, (S)-quinuclidin-3-yl (6-(2-fluorophenyl)-2,2-dimethyl-1,2,3,4-tetrahydronaphthalen-1-yl)carbamate] were, in that order, 3.1 nM and 0.97 nM.

The values above are taken from patent US12338237B2, “Derivatives having 1,2,3,4-tetrahydronaphthalene moiety or pharmaceutically acceptable salt thereof and pharmaceutical compositions comprising the same” (YUHAN CORPORATION, priority 2019, dated 2025).
